Assay results taken from PMC11233931, “Remodeling tumor‐associated macrophage for anti‐cancer effects by rational design of irreversible inhibition of mitogen‐activated protein kinase‐activated protein kinase 2” (MedComm, 2024).

Columns and labels:
Test in all cases: Eurofins kinase selectivity profile against 380 other human recombinant kinases (Table S2)
Assay type in all cases: biochemical
[1] = target: T1, 380 human recombinant protein kinases (Homo sapiens, UniProt P07333); conditions: Fms(h), read-out: Inhibition rate
T1 construct: purchased Eurofins (Celle Lévescault)
Procedure, shortened: (§1)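 Off-target profiling: one compound assayed by a commercial provider over 380 recombinant human protein kinases at various concentrations.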

[2] = target: T2, 380 human recombinant protein kinases (Homo sapiens, UniProt P0C1S8); conditions: Wee1B(h), read-out: Inhibition rate (%)
T2 construct: purchased Eurofins (Celle Lévescault)
Procedure, shortened: as §1

[3] = target: T3, 380 human recombinant protein kinases (Homo sapiens, UniProt P14616); conditions: IRR(h), read-out: Inhibition rate
T3 construct: purchased Eurofins (Celle Lévescault)
Procedure, shortened: as §1

[4] = target: T4, 380 human recombinant protein kinases (Homo sapiens, UniProt P37023); conditions: ALK1(h), read-out: Inhibition rate
T4 construct: purchased Eurofins (Celle Lévescault)
Procedure, shortened: as §1

[5] = target: T5, 380 human recombinant protein kinases (Homo sapiens, UniProt P42685); conditions: PTK5(h), read-out: Inhibition rate
T5 construct: purchased Eurofins (Celle Lévescault)
Procedure, shortened: as §1

[6] = target: T6, 380 human recombinant protein kinases (Homo sapiens, UniProt P51451); conditions: Blk(h), read-out: Inhibition rate
T6 construct: purchased Eurofins (Celle Lévescault)
Procedure, shortened: as §1

[7] = target: T7, 380 human recombinant protein kinases (Homo sapiens, UniProt P78362); conditions: SRPK2(h), read-out: Inhibition rate (%)
T7 construct: purchased Eurofins (Celle Lévescault)
Procedure, shortened: as §1

[8] = target: T8, 380 human recombinant protein kinases (Homo sapiens, UniProt Q00536); conditions: CDK16/cyclinY(h), read-out: Inhibition rate
T8 construct: purchased Eurofins (Celle Lévescault)
Procedure, shortened: as §1

[9] = target: T9, 380 human recombinant protein kinases (Homo sapiens, UniProt Q00537); conditions: CDK17/cyclinY(h), read-out: Inhibition rate
T9 construct: purchased Eurofins (Celle Lévescault)
Procedure, shortened: as §1

[10] = target: T10, 380 human recombinant protein kinases (Homo sapiens, UniProt Q13555); conditions: CaMKIIγ(h), read-out: Inhibition rate
T10 construct: purchased Eurofins (Celle Lévescault)
Procedure, shortened: as §1

[11] = target: T11, 380 human recombinant protein kinases (Homo sapiens, UniProt Q15349); conditions: Rsk3(h), read-out: Inhibition rate (%)
T11 construct: purchased Eurofins (Celle Lévescault)
Procedure, shortened: as §1

[12] = target: T12, 380 human recombinant protein kinases (Homo sapiens, UniProt Q16832); conditions: DDR2(h), read-out: Inhibition rate
T12 construct: purchased Eurofins (Celle Lévescault)
T12 sequence (Q16832 22-855): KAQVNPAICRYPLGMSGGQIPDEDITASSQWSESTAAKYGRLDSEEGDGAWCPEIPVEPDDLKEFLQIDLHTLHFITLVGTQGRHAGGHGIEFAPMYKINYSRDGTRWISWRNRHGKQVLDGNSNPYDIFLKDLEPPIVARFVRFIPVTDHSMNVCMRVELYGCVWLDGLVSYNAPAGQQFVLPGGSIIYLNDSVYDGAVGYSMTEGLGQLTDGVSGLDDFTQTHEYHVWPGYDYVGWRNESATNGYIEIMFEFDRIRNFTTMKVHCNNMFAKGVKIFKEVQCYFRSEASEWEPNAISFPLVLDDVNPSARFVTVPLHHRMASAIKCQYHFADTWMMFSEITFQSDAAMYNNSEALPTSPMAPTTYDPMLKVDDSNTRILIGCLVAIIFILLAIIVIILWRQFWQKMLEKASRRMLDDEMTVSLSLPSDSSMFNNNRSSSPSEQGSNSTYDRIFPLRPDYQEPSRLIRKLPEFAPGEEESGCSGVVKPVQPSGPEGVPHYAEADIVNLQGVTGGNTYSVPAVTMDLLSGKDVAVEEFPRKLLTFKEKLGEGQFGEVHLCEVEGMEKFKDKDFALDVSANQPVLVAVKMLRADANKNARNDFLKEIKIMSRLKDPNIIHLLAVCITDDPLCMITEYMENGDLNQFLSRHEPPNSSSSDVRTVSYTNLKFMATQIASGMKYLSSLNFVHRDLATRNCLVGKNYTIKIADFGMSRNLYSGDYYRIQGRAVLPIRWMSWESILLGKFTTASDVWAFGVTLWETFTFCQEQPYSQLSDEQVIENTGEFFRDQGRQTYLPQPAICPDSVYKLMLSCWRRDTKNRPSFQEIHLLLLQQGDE
Procedure, shortened: as §1

[13] = target: T13, 380 human recombinant protein kinases (Homo sapiens, UniProt Q96J92); conditions: WNK4(h), read-out: Inhibition rate (%)
T13 construct: purchased Eurofins (Celle Lévescault)
Procedure, shortened: as §1

[14] = target: T14, 380 human recombinant protein kinases (Homo sapiens, UniProt Q9H4B4); conditions: Plk3(h), read-out: Inhibition rate
T14 construct: purchased Eurofins (Celle Lévescault)
Procedure, shortened: as §1

[15] = target: T15, 380 human recombinant protein kinases (Homo sapiens, UniProt Q9NY57); conditions: STK32B(h), read-out: Inhibition rate (%)
T15 construct: purchased Eurofins (Celle Lévescault)
Procedure, shortened: as §1

T3 sequence (P14616 27-1297): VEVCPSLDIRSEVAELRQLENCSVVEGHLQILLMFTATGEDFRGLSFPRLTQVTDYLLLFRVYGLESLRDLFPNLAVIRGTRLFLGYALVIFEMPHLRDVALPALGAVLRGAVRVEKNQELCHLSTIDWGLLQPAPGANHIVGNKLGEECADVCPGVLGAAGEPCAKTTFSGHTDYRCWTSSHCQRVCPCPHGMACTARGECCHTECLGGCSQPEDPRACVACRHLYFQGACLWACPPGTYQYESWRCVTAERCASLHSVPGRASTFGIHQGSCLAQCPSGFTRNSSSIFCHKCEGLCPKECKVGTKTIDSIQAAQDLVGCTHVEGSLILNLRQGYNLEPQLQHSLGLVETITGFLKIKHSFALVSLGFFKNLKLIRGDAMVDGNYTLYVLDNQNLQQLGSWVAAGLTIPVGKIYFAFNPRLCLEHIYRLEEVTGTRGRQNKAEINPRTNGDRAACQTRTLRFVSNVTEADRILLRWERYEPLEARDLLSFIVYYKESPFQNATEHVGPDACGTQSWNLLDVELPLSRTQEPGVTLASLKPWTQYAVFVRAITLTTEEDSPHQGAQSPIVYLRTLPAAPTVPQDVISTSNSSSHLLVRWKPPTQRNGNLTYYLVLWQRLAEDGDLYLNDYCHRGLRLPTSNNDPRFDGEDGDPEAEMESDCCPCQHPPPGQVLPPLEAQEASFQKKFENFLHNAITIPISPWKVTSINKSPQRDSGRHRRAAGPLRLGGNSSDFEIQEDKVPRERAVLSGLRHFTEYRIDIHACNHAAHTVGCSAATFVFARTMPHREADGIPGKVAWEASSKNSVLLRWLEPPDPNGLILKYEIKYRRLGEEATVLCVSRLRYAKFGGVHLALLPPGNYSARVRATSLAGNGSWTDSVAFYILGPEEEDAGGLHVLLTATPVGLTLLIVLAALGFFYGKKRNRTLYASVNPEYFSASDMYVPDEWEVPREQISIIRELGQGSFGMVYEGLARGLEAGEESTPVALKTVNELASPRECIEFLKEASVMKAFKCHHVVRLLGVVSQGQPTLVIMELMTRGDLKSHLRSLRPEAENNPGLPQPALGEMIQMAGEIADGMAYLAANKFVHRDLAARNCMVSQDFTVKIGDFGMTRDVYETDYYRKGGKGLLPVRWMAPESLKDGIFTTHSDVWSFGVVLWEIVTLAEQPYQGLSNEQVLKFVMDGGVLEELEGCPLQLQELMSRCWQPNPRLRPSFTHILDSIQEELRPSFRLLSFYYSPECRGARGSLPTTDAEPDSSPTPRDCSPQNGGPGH
T6 sequence (P51451 whole entry): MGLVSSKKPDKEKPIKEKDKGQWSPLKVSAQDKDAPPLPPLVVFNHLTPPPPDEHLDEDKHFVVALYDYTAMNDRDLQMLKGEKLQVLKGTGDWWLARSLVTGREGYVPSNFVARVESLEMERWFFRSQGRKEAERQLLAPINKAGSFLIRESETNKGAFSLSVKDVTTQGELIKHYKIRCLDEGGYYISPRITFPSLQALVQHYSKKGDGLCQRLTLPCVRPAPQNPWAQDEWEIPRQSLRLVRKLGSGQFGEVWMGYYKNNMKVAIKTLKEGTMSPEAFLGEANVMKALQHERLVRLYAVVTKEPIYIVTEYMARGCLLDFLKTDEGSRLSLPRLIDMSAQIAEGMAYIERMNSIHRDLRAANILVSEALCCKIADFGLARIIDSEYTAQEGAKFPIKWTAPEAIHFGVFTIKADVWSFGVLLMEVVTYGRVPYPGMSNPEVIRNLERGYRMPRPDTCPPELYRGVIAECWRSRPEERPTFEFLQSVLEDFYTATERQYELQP
T1 sequence (P07333 20-972): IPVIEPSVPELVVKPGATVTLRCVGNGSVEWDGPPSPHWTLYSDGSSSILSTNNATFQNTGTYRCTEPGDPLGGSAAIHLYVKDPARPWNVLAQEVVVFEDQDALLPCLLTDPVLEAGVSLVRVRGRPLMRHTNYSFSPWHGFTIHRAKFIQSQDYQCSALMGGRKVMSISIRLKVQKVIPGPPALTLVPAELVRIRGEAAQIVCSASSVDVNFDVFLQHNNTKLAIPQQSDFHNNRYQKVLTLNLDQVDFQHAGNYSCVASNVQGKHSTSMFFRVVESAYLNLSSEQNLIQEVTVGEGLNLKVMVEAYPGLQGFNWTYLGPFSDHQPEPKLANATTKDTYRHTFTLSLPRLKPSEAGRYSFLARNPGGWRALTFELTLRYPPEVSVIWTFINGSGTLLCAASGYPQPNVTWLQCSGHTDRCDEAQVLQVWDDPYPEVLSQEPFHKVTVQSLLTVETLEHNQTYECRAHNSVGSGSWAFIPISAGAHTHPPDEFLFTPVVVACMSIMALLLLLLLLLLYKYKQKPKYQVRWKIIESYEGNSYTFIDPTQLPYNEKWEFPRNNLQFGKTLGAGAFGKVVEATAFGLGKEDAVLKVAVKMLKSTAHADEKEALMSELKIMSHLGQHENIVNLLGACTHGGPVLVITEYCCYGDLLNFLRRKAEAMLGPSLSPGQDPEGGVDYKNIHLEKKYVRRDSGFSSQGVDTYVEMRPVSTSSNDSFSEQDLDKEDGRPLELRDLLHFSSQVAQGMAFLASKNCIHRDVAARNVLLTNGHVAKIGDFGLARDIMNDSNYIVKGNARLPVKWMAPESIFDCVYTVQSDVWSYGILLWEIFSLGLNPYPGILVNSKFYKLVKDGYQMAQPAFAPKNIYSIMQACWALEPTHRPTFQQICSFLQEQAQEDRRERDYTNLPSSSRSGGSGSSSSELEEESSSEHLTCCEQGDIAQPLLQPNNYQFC
T11 sequence (Q15349 whole entry): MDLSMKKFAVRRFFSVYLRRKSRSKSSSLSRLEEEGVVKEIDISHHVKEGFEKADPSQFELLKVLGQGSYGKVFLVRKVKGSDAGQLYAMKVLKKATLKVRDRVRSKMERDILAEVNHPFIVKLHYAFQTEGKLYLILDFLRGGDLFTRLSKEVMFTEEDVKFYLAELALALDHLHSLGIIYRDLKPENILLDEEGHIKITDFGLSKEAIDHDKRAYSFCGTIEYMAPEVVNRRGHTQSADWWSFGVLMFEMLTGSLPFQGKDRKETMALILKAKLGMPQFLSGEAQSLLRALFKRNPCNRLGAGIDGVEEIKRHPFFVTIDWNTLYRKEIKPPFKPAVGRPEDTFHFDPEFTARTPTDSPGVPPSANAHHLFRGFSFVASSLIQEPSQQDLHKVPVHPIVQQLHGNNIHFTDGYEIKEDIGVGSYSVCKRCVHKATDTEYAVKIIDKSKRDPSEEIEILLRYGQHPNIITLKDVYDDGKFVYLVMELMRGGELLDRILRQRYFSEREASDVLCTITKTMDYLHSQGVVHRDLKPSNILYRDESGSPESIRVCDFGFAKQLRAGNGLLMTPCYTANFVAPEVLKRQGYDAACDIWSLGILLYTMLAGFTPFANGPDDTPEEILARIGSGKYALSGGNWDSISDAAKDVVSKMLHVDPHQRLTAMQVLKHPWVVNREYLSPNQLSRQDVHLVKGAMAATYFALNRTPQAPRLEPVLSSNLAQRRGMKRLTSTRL
T4 sequence (P37023 22-503): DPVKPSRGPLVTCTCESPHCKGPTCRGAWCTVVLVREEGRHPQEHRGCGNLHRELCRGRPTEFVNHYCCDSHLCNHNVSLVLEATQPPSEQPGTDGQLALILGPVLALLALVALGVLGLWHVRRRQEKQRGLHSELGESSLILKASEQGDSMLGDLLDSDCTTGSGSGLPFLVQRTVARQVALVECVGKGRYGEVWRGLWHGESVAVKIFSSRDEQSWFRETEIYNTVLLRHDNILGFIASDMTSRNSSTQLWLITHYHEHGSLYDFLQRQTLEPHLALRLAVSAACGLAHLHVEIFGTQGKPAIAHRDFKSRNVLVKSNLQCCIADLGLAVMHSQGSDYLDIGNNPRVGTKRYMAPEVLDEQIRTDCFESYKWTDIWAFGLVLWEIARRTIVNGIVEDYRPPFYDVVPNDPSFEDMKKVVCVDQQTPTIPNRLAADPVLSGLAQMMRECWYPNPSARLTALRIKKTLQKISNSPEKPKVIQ
T14 sequence (Q9H4B4 whole entry): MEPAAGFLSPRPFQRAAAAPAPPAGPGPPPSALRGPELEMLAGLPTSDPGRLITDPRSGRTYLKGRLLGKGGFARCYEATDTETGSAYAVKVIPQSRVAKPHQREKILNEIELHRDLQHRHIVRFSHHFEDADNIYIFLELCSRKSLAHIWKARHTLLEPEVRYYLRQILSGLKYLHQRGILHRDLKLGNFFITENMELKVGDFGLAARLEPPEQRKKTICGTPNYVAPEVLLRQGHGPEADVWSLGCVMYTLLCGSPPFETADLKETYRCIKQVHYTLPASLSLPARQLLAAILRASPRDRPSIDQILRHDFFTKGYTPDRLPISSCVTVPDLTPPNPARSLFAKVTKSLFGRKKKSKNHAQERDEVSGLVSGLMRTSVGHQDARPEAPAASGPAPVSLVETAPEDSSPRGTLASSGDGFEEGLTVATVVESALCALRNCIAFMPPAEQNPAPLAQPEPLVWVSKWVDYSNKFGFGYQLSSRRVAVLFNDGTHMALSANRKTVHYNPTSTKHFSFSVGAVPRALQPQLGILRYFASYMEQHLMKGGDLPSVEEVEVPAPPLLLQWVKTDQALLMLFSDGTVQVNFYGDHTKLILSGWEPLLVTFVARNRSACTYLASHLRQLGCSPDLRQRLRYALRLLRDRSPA
T15 sequence (Q9NY57 whole entry): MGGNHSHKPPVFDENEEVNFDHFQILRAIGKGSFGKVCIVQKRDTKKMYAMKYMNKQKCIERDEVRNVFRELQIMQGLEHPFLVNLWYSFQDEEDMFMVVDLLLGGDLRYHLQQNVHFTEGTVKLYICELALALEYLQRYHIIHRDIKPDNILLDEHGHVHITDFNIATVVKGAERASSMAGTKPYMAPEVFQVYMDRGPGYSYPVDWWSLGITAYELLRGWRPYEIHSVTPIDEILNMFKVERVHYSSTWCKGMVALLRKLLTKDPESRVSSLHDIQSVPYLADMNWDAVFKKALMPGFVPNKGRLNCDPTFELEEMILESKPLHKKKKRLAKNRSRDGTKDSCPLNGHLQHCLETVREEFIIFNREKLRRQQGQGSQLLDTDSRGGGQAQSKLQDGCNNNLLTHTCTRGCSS

For `C=CC(=O)Nc1cc(-c2cc(-c3cc4c([nH]3)CCNC4=O)ccn2)ccc1OC(F)(F)F` [compound 11], the inhibition at 0.01 µM ([1]; 10 nM) was -8%, the inhibition at 0.1 µM ([1]; 100 nM) was -9% and the inhibition at 1 µM ([1]; 1000 nM) was -6%. It also gave an inhibition at 0.01 µM ([2]; 10 nM) of -2%, an inhibition at 0.1 µM ([2]; 100 nM) of -4% and an inhibition at 1 µM ([2]; 1000 nM) of 3%. The inhibition at 0.01 µM ([3]; 10 nM) was 10%, the inhibition at 0.1 µM ([3]; 100 nM) was 33% and the inhibition at 1 µM ([3]; 1000 nM) was 61%. For the same molecule, the inhibition at 0.01 µM ([4]; 10 nM) was -16%, the inhibition at 0.1 µM ([4]; 100 nM) was -12% and the inhibition at 1 µM ([4]; 1000 nM) was -9%. The inhibition at 0.01 µM ([5]; 10 nM) was -7%, the inhibition at 0.1 µM ([5]; 100 nM) was 6% and the inhibition at 1 µM ([5]; 1000 nM) was 5%. The inhibition at 0.01 µM ([6]; 10 nM) was 13%, the inhibition at 0.1 µM ([6]; 100 nM) was 4% and the inhibition at 1 µM ([6]; 1000 nM) was 12%. It also gave an inhibition at 0.01 µM ([7]; 10 nM) of 7%, an inhibition at 0.1 µM ([7]; 100 nM) of -1% and an inhibition at 1 µM ([7]; 1000 nM) of 6%. For the same molecule, the inhibition at 0.01 µM ([8]; 10 nM) was -1%, the inhibition at 0.1 µM ([8]; 100 nM) was 7% and the inhibition at 1 µM ([8]; 1000 nM) was -13%. The inhibition at 0.01 µM ([9]; 10 nM) was 13%, the inhibition at 0.1 µM ([9]; 100 nM) was 19% and the inhibition at 1 µM ([9]; 1000 nM) was 25%. It also gave an inhibition at 0.01 µM ([10]; 10 nM) of -5%, an inhibition at 0.1 µM ([10]; 100 nM) of 6% and an inhibition at 1 µM ([10]; 1000 nM) of 18%. It also gave an inhibition at 0.01 µM ([11]; 10 nM) of -9%, an inhibition at 0.1 µM ([11]; 100 nM) of 14% and an inhibition at 1 µM ([11]; 1000 nM) of 16%. It also gave an inhibition at 0.01 µM ([12]; 10 nM) of -7%, an inhibition at 0.1 µM ([12]; 100 nM) of -10% and an inhibition at 1 µM ([12]; 1000 nM) of -10%. The inhibition at 0.01 µM ([13]; 10 nM) was 6%, the inhibition at 0.1 µM ([13]; 100 nM) was 6% and the inhibition at 1 µM ([13]; 1000 nM) was 3%. For the same molecule, the inhibition at 0.01 µM ([14]; 10 nM) was 10%, the inhibition at 0.1 µM ([14]; 100 nM) was 6% and the inhibition at 1 µM ([14]; 1000 nM) was 15%. The inhibition at 0.01 µM ([15]; 10 nM) was -9%, the inhibition at 0.1 µM ([15]; 100 nM) was -5% and the inhibition at 1 µM ([15]; 1000 nM) was -3%.
